Data from ChEMBL document CHEMBL4130345, “Discovery of a series of dihydroquinoxalin-2(1H)-ones as selective BET inhibitors from a dual PLK1-BRD4 inhibitor” (Eur J Med Chem, 2017).

Assays:
[1] = target: Transcription intermediary factor 1-alpha (Homo sapiens) (UniProt O15164); assay: Inhibition of human partial length TRIM24 (P790 to P977 residues) expressed in Escherichia coli BL21 assessed as residual activity at 1 uM after 1 hr by qPCR method relative to control
[2] = target: Bromodomain-containing protein 4 (Homo sapiens, UniProt O60885); assay: Inhibition of BRD4 in human TY82 cells assessed as downregulation of c-Myc mRNA expression after 24 hrs by RT-qPCR method; type: cell-based
[3] = target: Bromodomain testis-specific protein (Homo sapiens) (UniProt Q58F21); assay: Inhibition of human partial length BRDT bromodomain 1 (N21 to E137 residues) expressed in Escherichia coli BL21 assessed as residual activity at 1 uM after 1 hr by qPCR method relative to control
[4] = target: Histone acetyltransferase KAT2B (Homo sapiens) (UniProt Q92831); assay: Inhibition of human partial length PCAF (G715 to D831 residues) expressed in Escherichia coli BL21 assessed as residual activity at 1 uM after 1 hr by qPCR method relative to control
[5] = target: Bromodomain-containing protein 2 (Homo sapiens) (UniProt P25440); assay: Inhibition of human partial length BRD2 bromodomain 1 long isoform (K71 to N194 residues) expressed in Escherichia coli BL21 assessed as residual activity at 1 uM after 1 hr by qPCR method relative to control
[6] = target: Bromodomain adjacent to zinc finger domain protein 2A (Homo sapiens) (UniProt Q9UIF9); assay: Inhibition of human partial length BAZ2A (M1792 to L1905 residues) expressed in Escherichia coli BL21 assessed as residual activity at 1 uM after 1 hr by qPCR method relative to control
[7] = target: Protein polybromo-1 (Homo sapiens) (UniProt Q86U86); assay: Inhibition of human partial length PBRM1 bromodomain 2 (S178 to E291 residues) expressed in Escherichia coli BL21 assessed as residual activity at 1 uM after 1 hr by qPCR method relative to control
[8] = target: CREB-binding protein (Homo sapiens) (UniProt Q92793); assay: Inhibition of human partial length CREBBP (R1081 to G1197 residues) expressed in Escherichia coli BL21 assessed as residual activity at 1 uM after 1 hr by qPCR method relative to control
[9] = target: Transcription initiation factor TFIID subunit 1 (Homo sapiens) (UniProt P21675); assay: Inhibition of human partial length TAF1 bromodomain 2 (D1521 to D1656 residues) expressed in Escherichia coli BL21 assessed as residual activity at 1 uM after 1 hr by qPCR method relative to control
[10] = target: Bromodomain-containing protein 9 (Homo sapiens) (UniProt Q9H8M2); assay: Inhibition of human partial length BRD9 (R130 to V259 residues) expressed in Escherichia coli BL21 assessed as residual activity at 1 uM after 1 hr by qPCR method relative to control
[11] = target: Chromatin remodeling regulator CECR2 (Homo sapiens) (UniProt Q9BXF3); assay: Inhibition of human partial length CECR2 (P423 to D543 residues) expressed in Escherichia coli BL21 assessed as residual activity at 1 uM after 1 hr by qPCR method relative to control
[12] = target: Bromodomain-containing protein 3 (Homo sapiens) (UniProt Q15059); assay: Inhibition of human partial length BRD3 bromodomain 2 (G306 to P416 residues) expressed in Escherichia coli BL21 assessed as residual activity at 1 uM after 1 hr by qPCR method relative to control
[13] = target: ATPase family AAA domain-containing protein 2B (Homo sapiens) (UniProt Q9ULI0); assay: Inhibition of human partial length ATAD2B (Q955 to R1082 residues) expressed in Escherichia coli BL21 assessed as residual activity at 1 uM after 1 hr by qPCR method relative to control
[14] = target: E3 ubiquitin-protein ligase TRIM33 (Homo sapiens) (UniProt Q9UPN9); assay: Inhibition of human partial length TRIM33 (D882 to A1087 residues) expressed in Escherichia coli BL21 assessed as residual activity at 1 uM after 1 hr by qPCR method relative to control

Chain of Histone acetyltransferase KAT2B (Homo sapiens) (Q92831 whole entry, looked up, the tested form may be a part, canonical isoform): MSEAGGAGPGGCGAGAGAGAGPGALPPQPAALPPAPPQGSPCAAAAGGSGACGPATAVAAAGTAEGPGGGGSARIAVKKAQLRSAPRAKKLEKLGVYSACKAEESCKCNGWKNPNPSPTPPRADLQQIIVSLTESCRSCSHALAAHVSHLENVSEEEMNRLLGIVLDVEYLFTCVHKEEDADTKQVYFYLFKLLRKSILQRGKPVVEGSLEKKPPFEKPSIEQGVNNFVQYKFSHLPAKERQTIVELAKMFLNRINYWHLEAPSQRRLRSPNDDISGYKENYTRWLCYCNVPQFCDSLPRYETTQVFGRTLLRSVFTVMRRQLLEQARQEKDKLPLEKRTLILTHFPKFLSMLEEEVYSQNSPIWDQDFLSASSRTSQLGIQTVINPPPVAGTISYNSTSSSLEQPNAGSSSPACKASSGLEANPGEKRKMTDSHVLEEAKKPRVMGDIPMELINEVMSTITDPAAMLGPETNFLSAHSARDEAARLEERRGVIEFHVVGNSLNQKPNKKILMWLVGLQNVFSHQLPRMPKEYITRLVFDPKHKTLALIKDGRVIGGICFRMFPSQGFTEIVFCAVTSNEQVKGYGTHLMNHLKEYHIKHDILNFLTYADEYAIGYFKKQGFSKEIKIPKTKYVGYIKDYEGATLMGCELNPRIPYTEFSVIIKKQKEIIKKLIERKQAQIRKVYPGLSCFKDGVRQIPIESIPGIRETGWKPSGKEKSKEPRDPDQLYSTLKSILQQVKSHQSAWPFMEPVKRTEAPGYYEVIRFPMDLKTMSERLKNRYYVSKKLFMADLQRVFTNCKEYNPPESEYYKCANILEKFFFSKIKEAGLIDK
Chain of Bromodomain-containing protein 9 (Homo sapiens) (Q9H8M2 whole entry, the tested form may be a part): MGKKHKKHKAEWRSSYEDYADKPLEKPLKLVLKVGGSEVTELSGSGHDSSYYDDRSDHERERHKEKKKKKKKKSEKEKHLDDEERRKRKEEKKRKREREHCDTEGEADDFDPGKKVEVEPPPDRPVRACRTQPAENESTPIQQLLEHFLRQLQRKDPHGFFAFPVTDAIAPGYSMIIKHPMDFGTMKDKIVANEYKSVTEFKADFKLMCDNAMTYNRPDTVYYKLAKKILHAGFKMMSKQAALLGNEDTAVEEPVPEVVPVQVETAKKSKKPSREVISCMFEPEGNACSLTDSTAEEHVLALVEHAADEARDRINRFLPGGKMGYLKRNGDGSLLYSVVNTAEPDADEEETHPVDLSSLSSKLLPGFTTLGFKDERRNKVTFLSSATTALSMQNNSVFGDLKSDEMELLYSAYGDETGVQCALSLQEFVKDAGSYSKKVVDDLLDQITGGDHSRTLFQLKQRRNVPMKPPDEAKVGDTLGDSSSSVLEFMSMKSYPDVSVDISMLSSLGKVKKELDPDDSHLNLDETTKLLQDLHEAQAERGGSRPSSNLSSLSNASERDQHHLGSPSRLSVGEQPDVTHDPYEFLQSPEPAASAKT
Chain of ATPase family AAA domain-containing protein 2B (Homo sapiens) (Q9ULI0 whole entry, the tested form may be a part): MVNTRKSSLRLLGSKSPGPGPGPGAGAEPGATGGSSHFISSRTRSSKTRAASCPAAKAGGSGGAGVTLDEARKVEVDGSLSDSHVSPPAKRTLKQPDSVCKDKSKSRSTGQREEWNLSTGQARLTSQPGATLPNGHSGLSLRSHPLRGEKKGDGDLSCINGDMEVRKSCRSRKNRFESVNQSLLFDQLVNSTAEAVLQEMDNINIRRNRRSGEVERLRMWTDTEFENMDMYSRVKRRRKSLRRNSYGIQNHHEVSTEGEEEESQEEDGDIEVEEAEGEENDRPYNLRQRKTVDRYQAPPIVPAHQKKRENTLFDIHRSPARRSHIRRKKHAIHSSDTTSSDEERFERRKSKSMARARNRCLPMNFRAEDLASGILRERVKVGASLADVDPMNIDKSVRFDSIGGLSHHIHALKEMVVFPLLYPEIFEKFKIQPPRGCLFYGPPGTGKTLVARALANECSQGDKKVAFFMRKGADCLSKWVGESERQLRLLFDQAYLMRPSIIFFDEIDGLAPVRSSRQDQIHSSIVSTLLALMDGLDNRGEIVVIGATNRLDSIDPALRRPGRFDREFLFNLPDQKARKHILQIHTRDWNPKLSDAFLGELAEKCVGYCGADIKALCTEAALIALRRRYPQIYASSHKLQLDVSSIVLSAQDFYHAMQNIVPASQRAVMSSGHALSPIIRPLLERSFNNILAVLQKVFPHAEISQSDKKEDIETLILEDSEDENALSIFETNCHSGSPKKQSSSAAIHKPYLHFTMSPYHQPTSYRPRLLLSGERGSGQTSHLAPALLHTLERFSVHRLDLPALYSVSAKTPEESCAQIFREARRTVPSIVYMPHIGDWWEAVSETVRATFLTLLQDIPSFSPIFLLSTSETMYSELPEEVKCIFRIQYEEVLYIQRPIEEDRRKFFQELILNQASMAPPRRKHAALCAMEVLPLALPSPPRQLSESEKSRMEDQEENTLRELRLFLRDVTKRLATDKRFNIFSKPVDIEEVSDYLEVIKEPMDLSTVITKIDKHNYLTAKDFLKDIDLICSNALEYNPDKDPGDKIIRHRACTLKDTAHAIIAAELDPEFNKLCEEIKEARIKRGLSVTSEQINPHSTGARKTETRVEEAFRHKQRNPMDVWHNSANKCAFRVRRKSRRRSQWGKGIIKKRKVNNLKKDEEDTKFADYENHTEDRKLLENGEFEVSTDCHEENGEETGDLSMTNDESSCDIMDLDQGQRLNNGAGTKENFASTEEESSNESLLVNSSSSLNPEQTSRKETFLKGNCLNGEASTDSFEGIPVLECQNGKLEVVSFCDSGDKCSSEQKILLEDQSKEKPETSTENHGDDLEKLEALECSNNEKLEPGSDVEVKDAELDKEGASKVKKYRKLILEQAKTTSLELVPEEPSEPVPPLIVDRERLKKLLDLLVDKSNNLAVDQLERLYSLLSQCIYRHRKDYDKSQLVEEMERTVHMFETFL
Chain of Protein polybromo-1 (Homo sapiens) (Q86U86 whole entry, the tested form may be a part): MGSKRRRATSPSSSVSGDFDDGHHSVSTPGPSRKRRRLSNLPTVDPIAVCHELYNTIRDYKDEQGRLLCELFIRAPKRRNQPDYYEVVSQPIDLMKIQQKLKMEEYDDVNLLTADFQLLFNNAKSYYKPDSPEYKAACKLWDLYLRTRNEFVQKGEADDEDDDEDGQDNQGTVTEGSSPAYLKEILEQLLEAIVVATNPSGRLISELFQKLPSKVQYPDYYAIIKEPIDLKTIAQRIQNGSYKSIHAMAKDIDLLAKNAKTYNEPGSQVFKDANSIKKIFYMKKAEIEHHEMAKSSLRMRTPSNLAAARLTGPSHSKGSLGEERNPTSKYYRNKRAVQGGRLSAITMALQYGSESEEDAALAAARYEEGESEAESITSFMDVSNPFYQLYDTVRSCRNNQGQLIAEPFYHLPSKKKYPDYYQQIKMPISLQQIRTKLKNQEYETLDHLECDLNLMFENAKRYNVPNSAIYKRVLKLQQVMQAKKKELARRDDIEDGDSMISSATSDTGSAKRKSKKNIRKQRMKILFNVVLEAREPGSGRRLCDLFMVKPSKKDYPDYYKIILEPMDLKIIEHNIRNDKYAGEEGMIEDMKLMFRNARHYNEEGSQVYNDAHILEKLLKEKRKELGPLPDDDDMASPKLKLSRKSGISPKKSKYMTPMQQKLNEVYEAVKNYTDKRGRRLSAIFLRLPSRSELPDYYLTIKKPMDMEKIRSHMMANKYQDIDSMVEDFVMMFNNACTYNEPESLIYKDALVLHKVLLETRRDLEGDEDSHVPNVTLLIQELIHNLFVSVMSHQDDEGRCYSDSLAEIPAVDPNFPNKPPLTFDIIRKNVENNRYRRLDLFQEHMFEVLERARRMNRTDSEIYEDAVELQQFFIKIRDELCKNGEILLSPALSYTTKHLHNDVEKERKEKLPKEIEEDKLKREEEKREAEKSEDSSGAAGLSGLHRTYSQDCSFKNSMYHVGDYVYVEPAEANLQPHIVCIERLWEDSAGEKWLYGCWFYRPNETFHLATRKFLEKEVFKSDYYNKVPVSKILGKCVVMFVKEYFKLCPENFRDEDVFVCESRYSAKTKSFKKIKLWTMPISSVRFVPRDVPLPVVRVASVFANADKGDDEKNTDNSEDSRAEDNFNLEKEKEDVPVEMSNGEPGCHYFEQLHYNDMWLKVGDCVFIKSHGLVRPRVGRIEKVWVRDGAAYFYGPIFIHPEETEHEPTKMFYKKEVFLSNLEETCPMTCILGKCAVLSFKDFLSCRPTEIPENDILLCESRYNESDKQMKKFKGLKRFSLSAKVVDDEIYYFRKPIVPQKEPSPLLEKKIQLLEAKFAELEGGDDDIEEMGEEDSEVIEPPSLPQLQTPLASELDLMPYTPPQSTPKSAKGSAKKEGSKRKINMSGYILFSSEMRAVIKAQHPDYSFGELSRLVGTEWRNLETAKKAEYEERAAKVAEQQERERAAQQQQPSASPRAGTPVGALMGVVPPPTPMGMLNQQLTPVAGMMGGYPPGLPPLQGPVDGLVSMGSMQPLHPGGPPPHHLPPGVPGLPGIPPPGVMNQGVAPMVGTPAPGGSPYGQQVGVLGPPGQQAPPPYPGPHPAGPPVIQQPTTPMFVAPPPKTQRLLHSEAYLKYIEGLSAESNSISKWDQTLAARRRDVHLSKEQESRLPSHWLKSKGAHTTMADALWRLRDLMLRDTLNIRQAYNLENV

Cc1ccc([C@H](C)Nc2ccc3c(c2)N(C2CC2)[C@H](C)C(=O)N3C)c(C)c1 was tested, and the Activity [1] was 80%, the inhibition [2] was “Dose-dependent effect” and the Activity [3] was 3.1%. For the same compound, the Activity [4] was 96%, the Activity [5] was 0.9% and the Activity [6] was 83%. For the same compound, the Activity [7] was 100%, the Activity [8] was 67% and the Activity [9] was 85%. It also gave an Activity [10] of 77%, an Activity [11] of 83% and an Activity [12] of 0.3%. For the same compound, the Activity [13] was 100% and the Activity [14] was 99%.
